From US12594276B2, “Inhibitors of human immunodeficiency virus replication” (ViiV Healthcare UK (No.5) Limited, priority 2024, dated 2026) come the findings set out here.

Series [1] has as its system recombinant NL4-3 virus (nef section replaced with Renilla luciferase gene) in MT-2 cells. The series is described as follows: HIV cell culture assay (antiviral activity, luciferase readout). The class given is cell-based. Conditions: Renilla, NL43, MT-2 cells infected for 4-5 days with recombinant NL4-3 Renilla luciferase virus. The procedure, abridged:
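MT-2 cells were infected for 4-5 days with reporter virus made by transfecting the recombinant NL4-3 proviral clone into 293T cells, in the presence of serial compound dilutions. Luciferase activity was read with a live-cell substrate. EC50 came from the exponential median effect equation, (Fa)=1/[1+(ED50/drug conc.)m].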

A short description of series [2]: Compound cytotoxicity, XTT-based colorimetric assay. Conditions: human. It counts as cell-based. In short, it runs like this:
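Cells seeded as for the antiviral assay but left uninfected (MT2). Compound exposure continued to day 4. XTT reagent added and colour read. CC50 calculated.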

Setting [3] is: uninfected MT2 cells, day 4, XTT, read-out: CC50.

Read-outs that look alike come from different tables or passages of the source.

For the compound `Cc1cc(C2(F)CCC(F)(F)CC2)nc2nc([C@H](Cc3cc(F)cc(F)c3)NC(=O)Cn3nc(C4CC4)c4c3C[C@@H]3C[C@H]43)n(-c3ccc(Cl)c4c(NS(C)(=O)=O)nn(CCN5C[C@H](C)OC(C)(C)C5)c34)c(=O)c12` (atropisomer, axis not shown; (P)) [Example 583, N-[(1S)-1-[(3P)-3-(4-chloro-3-methanesulfonamido-1-{2-[(6S)-2,2,6-trimethylmorpholin-4-yl]ethyl}-1H-indazol-7-yl)-5-methyl-4-oxo-7-(1,4,4-trifluorocyclohexyl)-3H,4H-pyrido[2,3-d]pyrimidin-2-yl]-2-(3,5-difluorophenyl)ethyl]-2-[(2S,4S)-9-cyclopropyl-7,8-diazatricyclo[4.3.0.0^2,^4]nona-1(6),8-dien-7-yl]acetamide], in series [1], the EC50 came to 0.031 nM. Also, the CC50 at 4 days in series [2] (setting [3]) was > 20 nM.

Take `Cc1cc(C2(F)CCC(F)(F)CC2)nc2nc([C@H](Cc3cc(F)cc(F)c3)NC(=O)Cn3nc(C4CC4)c4c3C[C@@H]3C[C@H]43)n(-c3ccc(Cl)c4c(NS(C)(=O)=O)nn(CCN5C[C@@H](C)OC(C)(C)C5)c34)c(=O)c12` (atropisomer, axis not shown; (P)) [Example 584, N-[(1S)-1-[(3P)-3-(4-chloro-3-methanesulfonamido-1-{2-[(6R)-2,2,6-trimethylmorpholin-4-yl]ethyl}-1H-indazol-7-yl)-5-methyl-4-oxo-7-(1,4,4-trifluorocyclohexyl)-3H,4H-pyrido[2,3-d]pyrimidin-2-yl]-2-(3,5-difluorophenyl)ethyl]-2-[(2S,4S)-9-cyclopropyl-7,8-diazatricyclo[4.3.0.0^2,^4]nona-1(6),8-dien-7-yl]acetamide]: the half-maximal effective concentration (EC50) in series [1] was 0.015 nM. Moreover, in series [2] (setting [3]), the CC50 at 4 days was > 20 nM.

As to `Cc1cc(C2(F)CCC(F)(F)CC2)nc2nc([C@H](Cc3cc(F)cc(F)c3)NC(=O)Cn3nc(C4CC4)c4c3C[C@@H]3C[C@H]43)n(-c3ccc(Cl)c4c(NS(C)(=O)=O)nn(CCN5CCOC(C)(C)C5)c34)c(=O)c12` (atropisomer, axis not shown; (P)) [Example 585, N-[(1S)-1-[(3P)-3-{4-chloro-1-[2-(2,2-dimethylmorpholin-4-yl)ethyl]-3-methanesulfonamido-1H-indazol-7-yl}-5-methyl-4-oxo-7-(1,4,4-trifluorocyclohexyl)-3H,4H-pyrido[2,3-d]pyrimidin-2-yl]-2-(3,5-difluorophenyl)ethyl]-2-[(2S,4S)-9-cyclopropyl-7,8-diazatricyclo[4.3.0.0^2,^4]nona-1(6),8-dien-7-yl]acetamide], the EC50 in series [1] stood at 0.012 nM. Further, the CC50 at 4 days in series [2] (setting [3]) is > 20 nM.

`Cc1cc(C2(F)CCC(F)(F)CC2)nc2nc([C@H](Cc3cc(F)cc(F)c3)NC(=O)Cn3nc(C4CC4)c4c3C[C@@H]3C[C@H]43)n(-c3ccc(Cl)c4c(NS(C)(=O)=O)nn(CCN5CCOCC5(C)C)c34)c(=O)c12` (atropisomer, axis not shown; (P)) [Example 586, N-[(1S)-1-[(3P)-3-{4-chloro-1-[2-(3,3-dimethylmorpholin-4-yl)ethyl]-3-methanesulfonamido-1H-indazol-7-yl}-5-methyl-4-oxo-7-(1,4,4-trifluorocyclohexyl)-3H,4H-pyrido[2,3-d]pyrimidin-2-yl]-2-(3,5-difluorophenyl)ethyl]-2-[(2S,4S)-9-cyclopropyl-7,8-diazatricyclo[4.3.0.0^2,^4]nona-1(6),8-dien-7-yl]acetamide]: in series [1], the EC50 is 0.016 nM. For the same compound, the 50% cytotoxic concentration (CC50) at 4 days in series [2] (setting [3]) is > 20 nM.

On to `Cc1cc(C2(F)CCC(F)(F)CC2)nc2nc([C@H](Cc3cc(F)cc(F)c3)NC(=O)Cn3nc(C(F)F)c4c3C(F)(F)[C@@H]3C[C@H]43)n(-c3ccc(Cl)c4c(NS(C)(=O)=O)nn(CCN5C[C@H]6CC[C@@H](C5)O6)c34)c(=O)c12` (atropisomer, axis not shown; (P)) [Example 589, N-[(1S)-1-[(3P)-3-(4-chloro-3-methanesulfonamido-1-{2-[(1R,5S)-8-oxa-3-azabicyclo[3.2.1]octan-3-yl]ethyl}-1H-indazol-7-yl)-5-methyl-4-oxo-7-(1,4,4-trifluorocyclohexyl)-3H, 4H-pyrido[2,3-d]pyrimidin-2-yl]-2-(3,5-difluorophenyl)ethyl]-2-[(2S,4R)-9-(difluoromethyl)-5,5-difluoro-7,8-diazatricyclo[4.3.0.0^2,^4]nona-1(6),8-dien-7-yl]acetamide], for which, in series [1], the EC50 was found to be 0.005 nM. Moreover, the CC50 at 4 days in series [2] (setting [3]) was > 20 nM.

For `Cc1cc(C2(F)CCC(F)(F)CC2)nc2nc([C@H](Cc3cc(F)cc(F)c3)NC(=O)Cn3nc(C(F)F)c4c3C(F)(F)[C@@H]3C[C@H]43)n(-c3ccc(Cl)c4c(NS(C)(=O)=O)nn(CCN5[C@@H]6CC[C@H]5COC6)c34)c(=O)c12` (atropisomer, axis not shown; (P)) [Example 590, N-[(1S)-1-[(3P)-3-(4-chloro-3-methanesulfonamido-1-{2-[(1R,5S)-3-oxa-8-azabicyclo[3.2.1]octan-8-yl]ethyl}-1H-indazol-7-yl)-5-methyl-4-oxo-7-(1,4,4-trifluorocyclohexyl)-3H,4H-pyrido[2,3-d]pyrimidin-2-yl]-2-(3,5-difluorophenyl)ethyl]-2-[(2S,4R)-9-(difluoromethyl)-5,5-difluoro-7,8-diazatricyclo[4.3.0.0^2,^4]nona-1(6),8-dien-7-yl]acetamide], in series [1], the EC50 is 0.013 nM. In addition, the CC50 at 4 days in series [2] was > 20 nM.

`Cc1cc(C2(F)CCC(F)(F)CC2)nc2nc([C@H](Cc3cc(F)cc(F)c3)NC(=O)Cn3nc(C4CC4)c4c3C[C@@H]3C[C@H]43)n(-c3ccc(Cl)c4c(NS(C)(=O)=O)nn(CCN5C[C@H]6CC[C@@H](C5)O6)c34)c(=O)c12` (atropisomer, axis not shown; (P)) [Example 592, N-[(1S)-1-[(3P)-3-(4-chloro-3-methanesulfonamido-1-{2-[(1R,5S)-8-oxa-3-azabicyclo[3.2.1]octan-3-yl]ethyl}-1H-indazol-7-yl)-5-methyl-4-oxo-7-(1,4,4-trifluorocyclohexyl)-3H,4H-pyrido[2,3-d]pyrimidin-2-yl]-2-(3,5-difluorophenyl)ethyl]-2-[(2S,4S)-9-cyclopropyl-7,8-diazatricyclo[4.3.0.0^2,^4]nona-1(6),8-dien-7-yl]acetamide]: the EC50 in series [1] was found to be 0.006 nM. Also, the CC50 at 4 days in series [2] (setting [3]) is > 20 nM.

Take `Cc1cc(C2(F)CCC(F)(F)CC2)nc2nc([C@H](Cc3cc(F)cc(F)c3)NC(=O)Cn3nc(C4CC4)c4c3C[C@@H]3C[C@H]43)n(-c3ccc(Cl)c4c(NS(C)(=O)=O)nn(CCN5[C@@H]6CC[C@H]5COC6)c34)c(=O)c12` (atropisomer, axis not shown; (P)) [Example 593, N-[(1S)-1-[(3P)-3-(4-chloro-3-methanesulfonamido-1-{2-[(1R,5S)-3-oxa-8-azabicyclo[3.2.1]octan-8-yl]ethyl}-1H-indazol-7-yl)-5-methyl-4-oxo-7-(1,4,4-trifluorocyclohexyl)-3H,4H-pyrido[2,3-d]pyrimidin-2-yl]-2-(3,5-difluorophenyl)ethyl]-2-[(2S,4S)-9-cyclopropyl-7,8-diazatricyclo[4.3.0.0^2,^4]nona-1(6),8-dien-7-yl]acetamide]: the concentration for a half-maximal effect (EC50) in series [1] amounted to 0.017 nM. Besides, in series [2], the CC50 at 4 days was > 20 nM.
